Legend:
Type in all cases: cell-based
Conditions in all cases: isolated compound
H460 cells = experiment: MTT survival assay, human lung cancer cell line H460
Protocol: (§1) The Anctin K(AnK) and dehydroeburicoic acid (DeHBA) separately isolated from the Extraction A of Example 1 were added into the culture media of human lung-cancer cells, A549, CH27 or H460, to test for tumor cell survival by using anti-cancer drug screen model. This survival assay was carried out with the widely known MTT (3-[4,5-dimethylthiazol-2-yl]2,5-diphenyltetrazolium bromide) assay.
(§2) Lung cancer cell lines, A549 cells are adenocarcinomic human alveolar basal epithelial cells. A549 cell line are widely used as an in vitro model for a type II pulmonary epithelial cell model for drug metabolism and as a transfection host, while CH27 is human lung squamous carcinoma cell and H460 is human lung non-small cell carcinoma cell. The human lung-cancer cells, A549, CH27 and H460 were cultivated in media containing fetal calf serum for 10 hours. The proliferated cells were washed once with PBS, then treated with 1× trypsin-EDTA and centrifuged at 2000 rpm for 10 minutes. The supernatant was discarded and the cell pellet was re-suspended in […] of fresh culture medium by gently shaking. The cells were placed in a 96-well plate.
(§3) Subsequently, the plates were read on an ELISA reader to determine the survival rates. The half maximal inhibitory concentration (IC50) values were calculated and results of ex vivo survival assay were thus obtained.
(§4) By using the same manner as the method described above, respectively human lung cancer cell line A549, CH27 and H460 was cultured. After then, the pharmaceutical compositions A-F of the present invention was applied separately, and then MTT assay for each sample was measured to assess the inhibition effectiveness of various cancer cell activity while using pharmaceutical compositions A-F of the present invention.

CH27 cells = experiment: MTT survival assay, human lung cancer cell line CH27
Protocol: as §1, §2, §3, §4

A549 cells = experiment: MTT survival assay, human lung cancer cell line A549
Protocol: as §1, §2, §3, §4

C=C(CC[C@@H](C)[C@H]1CC[C@H]2C3=C(C(=O)C[C@]12C)[C@@]1(C)CC[C@@H](O)[C@](C)(O)C1C[C@@H]3O)C(C)C(=O)O (stereo partly drawn) [Anctin K]
half-maximal inhibitory concentration (IC50) (H460 cells): relatively low
survival rate of lung cancer cell (H460 cells): decreasing the survival rate
half-maximal inhibitory concentration (IC50) (CH27 cells): relatively low
survival rate of lung cancer cell (CH27 cells): decreasing the survival rate
half-maximal inhibitory concentration (IC50) (A549 cells): relatively low
survival rate of lung cancer cell (A549 cells): decreasing the survival rate

C=C(CC[C@@H](C(=O)O)[C@H]1CC[C@@]2(C)C3=CC[C@H]4C(C)(C)[C@@H](O)CC[C@]4(C)C3=CC[C@]12C)C(C)C [dehydroeburicoic acid]
half-maximal inhibitory concentration (IC50) (H460 cells): relatively low
survival rate of lung cancer cell (H460 cells): decreasing the survival rate
half-maximal inhibitory concentration (IC50) (CH27 cells): relatively low
survival rate of lung cancer cell (CH27 cells): decreasing the survival rate
half-maximal inhibitory concentration (IC50) (A549 cells): relatively low
survival rate of lung cancer cell (A549 cells): decreasing the survival rate

From patent publication US20170189418A1, “PHARMACEUTICAL COMPOSITION FOR TREATING LUNG CANCER” (MA SHEN KAI RUEI CO., LTD., priority 2015, published 2017)
